Assay results: publication PMC6231237 (Journal of the American Chemical Society, 2018)
*1 amine or outer side, *2 acyl side, *3 side chain or, on linkers, in order; H or OH if unused. Where a SMILES comes first, the peptide text is derived from it. Bridges are numbered along the chain shown (N, C = ends). [ ]: non-standard residue; d: D form. Trimesoyl = O=C(c1cc(C(=O)[*:2])cc(C(=O)[*:3])c1)[*:1]; 2Nal = N[C@@H](Cc1ccc2ccccc2c1)C(=O)O; Dap = NC[C@H](N)C(=O)O; βAla = NCCC(=O)O

Columns and labels:
NEMO-IKKβ interaction = NEMO-IKKβ interaction (Homo sapiens, UniProt Q9Y6K9); test: HTRF assay of inhibition of the NEMO-IKKβ interaction; assay type: binding; conditions: insertion of Ala N-terminal to the internal Dap, vs peptide 6
HeLa cells = test: Flow cytometry analysis of cellular uptake of FITC-labeled peptides; assay type: cell-based; conditions: relative to CPP1
[1] = tested on: TNFα-induced NF-κB activation in HEK293(Luc) cells; test: NF-κB luciferase assay, TNFα-induced; assay type: cell-based
[2] = tested on: basal NF-κB activity in HEK293(Luc) cells; test: NF-κB luciferase assay, basal; assay type: cell-based; conditions: absence of TNFα stimulation
HT29 colon cancer cells = test: Immunoblot analysis of IKKβ and IκBα levels; assay type: cell-based
[3] = tested on: ovarian surface epithelial cells (OSE); test: Methylene blue cell viability assay, OSE; assay type: cell-based; conditions: 72 h
A375 melanoma cells = test: Cell viability assay, A375; assay type: cell-based
[4] = tested on: A2780 ovarian cancer cells; test: Live-cell confocal microscopy of cell entry; assay type: cell-based; conditions: 5 μM FITC-labeled peptide, 2 h
[5] = target: panel of control proteins; test: Fluorescence anisotropy; conditions: fluorescently labeled peptide, FA assay
[6] = 0–25 μM, HT29 cells, TNFα, Western blot

Sequence of NEMO-IKKβ interaction (Q9Y6K9 1-196): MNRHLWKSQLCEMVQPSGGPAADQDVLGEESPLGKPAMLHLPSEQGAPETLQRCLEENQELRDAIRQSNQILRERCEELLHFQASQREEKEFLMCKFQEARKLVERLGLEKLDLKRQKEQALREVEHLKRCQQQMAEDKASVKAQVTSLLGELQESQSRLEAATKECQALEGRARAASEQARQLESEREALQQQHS

Compound | increase of binding affinity (NEMO-IKKβ interaction) [fold] | cell permeability (HeLa cells) [%] | IC50 [1] [µM] | effect on basal NF-κB activity [2] | increase in the basal NF-κB activity [2] | TNFα-induced phosphorylation of IKKβ (HT29 colon cancer cells; [6]) | total intracellular IKKβ level (HT29 colon cancer cells; [6]) | phospho-IKKβ or IκBα level (HT29 colon cancer cells; HT29 cells not stimulated with TNFα) | intracellular level of IκBα (HT29 colon cancer cells; HT29 cells, TNFα, Western blot) | effect on viability [3] | effect on viability (A375 melanoma cells) | cell entry (fluorescence) [4] | Kd [5] [µM]
CC[C@H](C)[C@@H]1NC(=O)[C@H](Cc2c[nH]c3ccccc23)NC(=O)CNC(=O)c2cc3cc(c2)C(=O)NC[C@@H](C(=O)NCCC(=O)NCCC(=O)N[C@@H](CCCCN)C(N)=O)NC(=O)[C@H](CCCNC(=N)N)NC(=O)[C@@H](CCCNC(=N)N)NC(=O)[C@H](CCCNC(=N)N)NC(=O)[C@H](Cc2ccc4ccccc4c2)NC(=O)[C@H](Cc2ccccc2)NC(=O)[C@H](CNC3=O)NC(=O)[C@H](C)NC(=O)[C@H](Cc2ccc(O)cc2)NC1=O [peptide 7, Tm(GWIYA)Δ(FΦRrRΔ)-BBK] (GWIYA[Dap]F[2Nal]R[dR]R[Dap][βAla][βAla]K-NH2; linker N-6-12 via Trimesoyl; C-terminus assumed) | 5.9 | 163 | 10 | did not inhibit | ~ 1.5 fold | dose-dependently inhibited | unchanged | no effect | increased | no significant effect | reduced the viability | intense green fluorescence inside all cells | > 10
RQIKIWFQNRRMKWKKGGTALDWSWLQTE [peptide 1, reference compound] | – | – | ~41 | – | – | – | – | – | – | – | – | – | –
